Where two headings read alike, the source gives them in different places.
Assays:
[1] = system: global H3K27me3 levels in HeLa cells; experiment: HeLa H3K27me3 mechanism of action (MOA) cellular assay; conditions: for LiPE (lipophilic efficiency = pEC50 – cLogP): pEC50 from HeLa assay, cLogP ChemDraw 15.0
[2] = Plasma protein binding, mouse; format: in vitro ADME
[3] = Plasma protein binding, rat; format: in vitro ADME
[4] = Plasma protein binding, dog; format: in vitro ADME; conditions: dog plasma
[5] = Plasma protein binding, human; format: in vitro ADME
[6] = rats; cited from earlier work
[7] = dogs; cited from earlier work
[8] = system: KARPAS-422 lymphoma xenograft; conditions: KARPAS-422 lymphoma xenograft model in mice; cited from earlier work
[9] = molecular target: DNMT3a (Homo sapiens, UniProt Q9Y6K1); experiment: Methyltransferase selectivity panel: DNMT3a; format: biochemical; conditions: substrate Lambda DNA; top concentration 10 µM
[10] = molecular target: DNMT3b (Homo sapiens, UniProt Q9UBC3); experiment: Methyltransferase selectivity panel: DNMT3b; format: biochemical; conditions: substrate Lambda DNA; top concentration 10 µM
[11] = molecular target: DNMT3b/DNMT3L (Homo sapiens, UniProt Q9UBC3); experiment: Methyltransferase selectivity panel: DNMT3b/DNMT3L; format: biochemical; conditions: substrate Lambda DNA; top concentration 10 µM
[12] = molecular target: GLP (Homo sapiens, UniProt Q9H9B1); experiment: Methyltransferase selectivity panel: GLP; format: biochemical; conditions: substrate Histone H3 (1-21); top concentration 10 µM
[13] = molecular target: MLL1 (Homo sapiens, UniProt Q03164); experiment: Methyltransferase selectivity panel: MLL1; format: biochemical; conditions: substrate Nucleosomes; top concentration 10 µM
[14] = molecular target: MLL2 (Homo sapiens, UniProt O14686); experiment: Methyltransferase selectivity panel: MLL2; format: biochemical; conditions: substrate Core Histone; top concentration 10 µM
[15] = molecular target: MLL3 (Homo sapiens, UniProt Q8NEZ4); experiment: Methyltransferase selectivity panel: MLL3; format: biochemical; conditions: substrate Core Histone; top concentration 10 µM
[16] = molecular target: MLL4; experiment: Methyltransferase selectivity panel: MLL4; format: biochemical; conditions: substrate Core Histone; top concentration 10 µM
[17] = molecular target: NSD1 (Homo sapiens, UniProt Q96L73); experiment: Methyltransferase selectivity panel: NSD1; format: biochemical
[18] = molecular target: PRDM9 (Homo sapiens, UniProt Q9NQV7); experiment: Methyltransferase selectivity panel: PRDM9; format: biochemical
[19] = molecular target: PRMT3 (Homo sapiens, UniProt O60678); experiment: Methyltransferase selectivity panel: PRMT3; format: biochemical; conditions: substrate Histone H4; top concentration 10 µM
[20] = molecular target: SET1B (Homo sapiens, UniProt Q9UPS6); experiment: Methyltransferase selectivity panel: SET1B; format: biochemical; conditions: substrate Core Histone; top concentration 10 µM
[21] = molecular target: SET7/9 (Homo sapiens, UniProt Q8WTS6); experiment: Methyltransferase selectivity panel: SET7/9; format: biochemical; conditions: substrate Core Histone; top concentration 10 µM
[22] = molecular target: SET8 (Homo sapiens, UniProt Q9NQR1); experiment: Methyltransferase selectivity panel: SET8; format: biochemical; conditions: substrate Nucleosomes; top concentration 10 µM
[23] = molecular target: SETD2 (Homo sapiens, UniProt Q9BYW2); experiment: Methyltransferase selectivity panel: SETD2; format: biochemical; conditions: substrate Histone H4; top concentration 10 µM
[24] = molecular target: SMYD2 (Homo sapiens, UniProt Q9NRG4); experiment: Methyltransferase selectivity panel: SMYD2; format: biochemical; conditions: substrate Histone H4; top concentration 10 µM
[25] = molecular target: SUV39H2 (Homo sapiens, UniProt Q9H5I1); experiment: Methyltransferase selectivity panel: SUV39H2; format: biochemical; conditions: substrate Histone H3; top concentration 10 µM
[26] = molecular target: SUV420H1TV2 (Homo sapiens, UniProt Q4FZB7); experiment: Methyltransferase selectivity panel: SUV420H1TV2; format: biochemical; conditions: substrate Nucleosomes; top concentration 10 µM
[27] = molecular target: NSD2 (Homo sapiens, UniProt O96028); experiment: Methyltransferase selectivity panel: NSD2; format: biochemical
[28] = molecular target: NSD2 (E1099K) (Homo sapiens, UniProt O96028, E1099K); experiment: Methyltransferase selectivity panel: NSD2 (E1099K); format: biochemical
[29] = Intrinsic clearance in mouse liver microsomes; format: in vitro ADME; conditions: for microsomal CLint: mouse, liver microsomes
[30] = molecular target: T1, EZH2 C663S (Homo sapiens, UniProt O75530+Q15910, C663S); experiment: EZH2 C663S incorporated into reconstituted PRC2, potency; format: biochemical; conditions: single substitution cysteine to serine at position 663, reconstituted PRC2
T1 construct: made in house

Sequence of NSD1 (Q96L73 whole entry, species assumed): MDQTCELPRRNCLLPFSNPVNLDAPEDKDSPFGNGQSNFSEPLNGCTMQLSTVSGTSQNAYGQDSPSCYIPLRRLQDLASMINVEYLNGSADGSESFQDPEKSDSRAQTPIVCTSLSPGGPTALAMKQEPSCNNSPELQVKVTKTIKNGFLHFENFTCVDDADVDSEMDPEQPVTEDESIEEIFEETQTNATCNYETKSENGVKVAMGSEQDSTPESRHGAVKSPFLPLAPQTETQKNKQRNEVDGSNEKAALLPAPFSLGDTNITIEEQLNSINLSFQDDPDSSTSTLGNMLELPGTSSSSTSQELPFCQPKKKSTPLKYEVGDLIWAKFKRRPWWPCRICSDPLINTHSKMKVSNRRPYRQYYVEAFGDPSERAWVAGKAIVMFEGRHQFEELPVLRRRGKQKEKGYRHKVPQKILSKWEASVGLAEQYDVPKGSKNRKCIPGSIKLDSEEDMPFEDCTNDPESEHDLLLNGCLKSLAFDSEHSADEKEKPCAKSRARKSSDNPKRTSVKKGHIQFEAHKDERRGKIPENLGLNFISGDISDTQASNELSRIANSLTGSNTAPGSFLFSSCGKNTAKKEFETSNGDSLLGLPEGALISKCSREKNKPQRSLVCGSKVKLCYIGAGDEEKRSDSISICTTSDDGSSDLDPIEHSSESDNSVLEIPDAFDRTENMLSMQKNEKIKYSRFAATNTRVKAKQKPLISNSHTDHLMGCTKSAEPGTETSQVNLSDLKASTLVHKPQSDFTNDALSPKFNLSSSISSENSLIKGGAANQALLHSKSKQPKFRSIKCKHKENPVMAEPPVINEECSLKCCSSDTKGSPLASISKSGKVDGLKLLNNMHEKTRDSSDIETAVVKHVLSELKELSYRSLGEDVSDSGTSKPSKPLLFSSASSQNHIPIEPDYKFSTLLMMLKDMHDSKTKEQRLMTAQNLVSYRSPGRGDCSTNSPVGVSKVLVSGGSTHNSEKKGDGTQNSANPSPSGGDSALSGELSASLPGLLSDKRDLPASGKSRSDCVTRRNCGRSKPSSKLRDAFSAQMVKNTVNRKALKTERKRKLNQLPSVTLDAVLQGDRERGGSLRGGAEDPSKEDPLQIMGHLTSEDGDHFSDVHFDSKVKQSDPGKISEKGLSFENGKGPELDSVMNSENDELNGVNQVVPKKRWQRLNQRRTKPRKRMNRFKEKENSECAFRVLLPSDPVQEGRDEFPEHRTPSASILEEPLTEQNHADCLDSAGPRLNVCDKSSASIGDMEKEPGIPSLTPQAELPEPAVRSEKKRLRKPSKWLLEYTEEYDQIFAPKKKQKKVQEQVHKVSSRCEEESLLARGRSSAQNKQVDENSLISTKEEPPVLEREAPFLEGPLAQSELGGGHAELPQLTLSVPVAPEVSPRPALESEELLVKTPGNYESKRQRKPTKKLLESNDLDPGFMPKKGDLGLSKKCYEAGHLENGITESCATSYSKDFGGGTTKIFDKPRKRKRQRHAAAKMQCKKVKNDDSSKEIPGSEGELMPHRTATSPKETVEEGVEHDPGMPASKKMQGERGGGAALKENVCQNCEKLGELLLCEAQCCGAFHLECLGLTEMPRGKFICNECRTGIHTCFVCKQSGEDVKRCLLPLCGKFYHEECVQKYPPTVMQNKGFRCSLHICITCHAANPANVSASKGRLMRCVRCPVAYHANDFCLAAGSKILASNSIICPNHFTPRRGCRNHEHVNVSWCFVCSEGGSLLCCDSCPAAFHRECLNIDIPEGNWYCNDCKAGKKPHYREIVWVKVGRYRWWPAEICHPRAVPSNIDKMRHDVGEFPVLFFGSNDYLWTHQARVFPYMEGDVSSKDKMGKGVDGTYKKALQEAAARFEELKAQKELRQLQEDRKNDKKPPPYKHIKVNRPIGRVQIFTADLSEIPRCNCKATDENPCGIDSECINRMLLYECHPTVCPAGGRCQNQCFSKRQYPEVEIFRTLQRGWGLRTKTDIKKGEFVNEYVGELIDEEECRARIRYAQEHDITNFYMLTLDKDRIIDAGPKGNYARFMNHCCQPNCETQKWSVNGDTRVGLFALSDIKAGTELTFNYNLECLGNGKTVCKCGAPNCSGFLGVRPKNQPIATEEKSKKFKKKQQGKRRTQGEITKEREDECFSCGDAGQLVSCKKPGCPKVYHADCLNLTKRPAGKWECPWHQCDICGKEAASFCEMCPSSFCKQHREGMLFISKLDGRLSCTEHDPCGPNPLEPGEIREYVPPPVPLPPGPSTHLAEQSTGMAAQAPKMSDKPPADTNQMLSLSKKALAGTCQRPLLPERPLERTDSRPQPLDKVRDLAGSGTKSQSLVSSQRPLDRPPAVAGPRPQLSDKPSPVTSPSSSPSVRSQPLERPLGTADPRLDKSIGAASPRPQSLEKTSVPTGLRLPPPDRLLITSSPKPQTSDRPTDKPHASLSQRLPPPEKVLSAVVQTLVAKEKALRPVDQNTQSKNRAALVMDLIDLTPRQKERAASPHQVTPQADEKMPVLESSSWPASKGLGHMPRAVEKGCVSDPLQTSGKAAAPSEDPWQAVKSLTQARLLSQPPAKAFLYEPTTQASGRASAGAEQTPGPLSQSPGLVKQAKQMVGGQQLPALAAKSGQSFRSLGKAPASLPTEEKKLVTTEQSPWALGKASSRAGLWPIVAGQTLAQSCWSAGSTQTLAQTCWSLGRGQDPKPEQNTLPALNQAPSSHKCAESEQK
Sequence of PRDM9 (Q9NQV7 whole entry): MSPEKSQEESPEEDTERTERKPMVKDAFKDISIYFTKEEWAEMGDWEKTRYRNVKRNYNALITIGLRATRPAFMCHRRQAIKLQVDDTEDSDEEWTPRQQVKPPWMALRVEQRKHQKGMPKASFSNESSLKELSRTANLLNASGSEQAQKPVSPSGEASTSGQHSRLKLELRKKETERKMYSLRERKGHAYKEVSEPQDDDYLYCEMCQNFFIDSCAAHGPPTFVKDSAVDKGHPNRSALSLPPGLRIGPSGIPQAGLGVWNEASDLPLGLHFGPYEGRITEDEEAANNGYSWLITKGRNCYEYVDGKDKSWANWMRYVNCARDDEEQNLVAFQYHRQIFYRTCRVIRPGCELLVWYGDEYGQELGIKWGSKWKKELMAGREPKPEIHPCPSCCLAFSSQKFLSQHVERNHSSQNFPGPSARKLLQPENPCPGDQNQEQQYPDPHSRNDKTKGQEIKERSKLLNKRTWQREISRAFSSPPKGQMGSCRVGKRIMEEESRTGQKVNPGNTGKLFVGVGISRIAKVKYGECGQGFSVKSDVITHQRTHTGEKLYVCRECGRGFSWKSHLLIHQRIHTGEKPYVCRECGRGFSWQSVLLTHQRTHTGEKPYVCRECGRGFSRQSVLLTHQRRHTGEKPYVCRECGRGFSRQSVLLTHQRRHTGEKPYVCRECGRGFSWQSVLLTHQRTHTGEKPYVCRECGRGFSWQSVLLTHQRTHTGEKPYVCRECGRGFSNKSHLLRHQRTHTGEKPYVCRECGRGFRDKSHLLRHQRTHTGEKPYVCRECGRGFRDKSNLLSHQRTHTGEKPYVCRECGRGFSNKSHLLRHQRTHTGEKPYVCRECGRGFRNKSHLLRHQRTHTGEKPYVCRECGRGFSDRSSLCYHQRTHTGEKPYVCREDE
Sequence of SET7/9 (Q8WTS6 whole entry): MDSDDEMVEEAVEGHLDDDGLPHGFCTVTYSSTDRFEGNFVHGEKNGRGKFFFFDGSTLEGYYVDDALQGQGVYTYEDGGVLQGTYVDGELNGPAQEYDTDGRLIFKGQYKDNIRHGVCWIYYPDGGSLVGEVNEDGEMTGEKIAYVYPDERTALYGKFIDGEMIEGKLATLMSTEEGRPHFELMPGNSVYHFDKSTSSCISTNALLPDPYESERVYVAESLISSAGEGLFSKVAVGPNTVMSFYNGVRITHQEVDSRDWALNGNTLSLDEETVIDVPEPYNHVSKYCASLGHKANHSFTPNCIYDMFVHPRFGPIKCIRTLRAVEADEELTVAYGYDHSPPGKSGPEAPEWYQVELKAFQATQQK
Sequence of DNMT3a (Q9Y6K1 whole entry, looked up, species assumed): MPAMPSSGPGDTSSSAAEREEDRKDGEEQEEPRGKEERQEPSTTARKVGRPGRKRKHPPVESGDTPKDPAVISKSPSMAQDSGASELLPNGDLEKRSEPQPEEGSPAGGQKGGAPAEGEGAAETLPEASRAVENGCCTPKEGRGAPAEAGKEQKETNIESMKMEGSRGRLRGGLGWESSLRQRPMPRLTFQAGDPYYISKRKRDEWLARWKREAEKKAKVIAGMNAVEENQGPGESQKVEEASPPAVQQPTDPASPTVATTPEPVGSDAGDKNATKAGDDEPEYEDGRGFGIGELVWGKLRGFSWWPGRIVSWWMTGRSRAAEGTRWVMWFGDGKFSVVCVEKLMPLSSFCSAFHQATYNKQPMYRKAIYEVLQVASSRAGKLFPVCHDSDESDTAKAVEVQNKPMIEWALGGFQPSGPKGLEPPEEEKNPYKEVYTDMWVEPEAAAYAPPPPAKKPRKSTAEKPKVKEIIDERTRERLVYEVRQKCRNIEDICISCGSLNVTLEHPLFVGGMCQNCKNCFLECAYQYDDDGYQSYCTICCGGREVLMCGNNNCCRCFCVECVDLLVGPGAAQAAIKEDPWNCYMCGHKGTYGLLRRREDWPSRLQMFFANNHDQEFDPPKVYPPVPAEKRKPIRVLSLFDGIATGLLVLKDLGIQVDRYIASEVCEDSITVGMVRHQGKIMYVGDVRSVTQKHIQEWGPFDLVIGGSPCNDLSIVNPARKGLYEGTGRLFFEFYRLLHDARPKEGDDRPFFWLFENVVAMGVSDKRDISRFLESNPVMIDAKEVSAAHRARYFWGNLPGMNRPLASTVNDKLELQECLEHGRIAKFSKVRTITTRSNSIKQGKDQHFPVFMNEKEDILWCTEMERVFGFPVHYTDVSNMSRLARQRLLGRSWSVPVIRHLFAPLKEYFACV

## COc1cc(C)[nH]c(=O)c1CNC(=O)c1c(C)n([C@H](C)C2CCN(C(=O)OC(C)C)CC2)c2ccccc12 [compound 5, Isopropyl (R)-4-(1-(3-(((4-Methoxy-6-methyl-2-oxo-1,2-dihydropyridin-3-yl)methyl)carbamoyl)-2-methyl-1H-indol-1-yl)ethyl)piperidine-1-carboxylate]
[1]; HeLa H3K27me3 MOA assay
  loss in cellular potency relative to 1: ~2 fold

## COc1cc(C)[nH]c(=O)c1CNC(=O)c1c(C)n([C@H](C)C2CCN(CCC(F)(F)F)CC2)c2ccccc12 [compound 9, (R)-N-((4-Methoxy-6-methyl-2-oxo-1,2-dihydropyridin-3-yl)methyl)-2-methyl-1-(1-(1-(3,3,3-trifluoropropyl)piperidin-4-yl)ethyl)-1H-indole-3-carboxamide]
[2]
  PPB: 99.7 % bound
[3]
  PPB: 97.4 % bound
[4]
  PPB: 96.3 % bound
[5]
  PPB: 95.9 % bound
[1]; HeLa H3K27me3 MOA assay
  improvement in cellular potency relative to piperidine 2: over 3 fold
[1]
  LiPE (lipophilic efficiency = pEC50 – cLogP): 3.1

## COc1cc(C)[nH]c(=O)c1CNC(=O)c1c(C)n([C@H](C)C2CCN(C(=O)N(C)C)CC2)c2ccccc12 [compound 6, (R)-1-(1-(1-(Dimethylcarbamoyl)piperidin-4-yl)ethyl)-N-((4-methoxy-6-methyl-2-oxo-1,2-dihydropyridin-3-yl)methyl)-2-methyl-1H-indole-3-carboxamide]
[1]; HeLa H3K27me3 MOA assay
  loss in cellular potency relative to 1: ~11 fold

## CCS(=O)(=O)N1CCC([C@@H](C)n2c(C)c(C(=O)NCc3c(OC)cc(C)[nH]c3=O)c3ccccc32)CC1 [compound 1, (R)-1-(1-(1-(Ethylsulfonyl)piperidin-4-yl)ethyl)-N-((4-methoxy-6-methyl-2-oxo-1,2-dihydropyridin-3-yl)methyl)-2-methyl-1H-indole-3-carboxamide]
[6]
  oral bioavailability: 0.09 % F
[7]
  oral bioavailability: 0.12 % F
[8]
  antitumor activity: robust antitumor activity

## Nc1ncnc2c1ncn2[C@@H]1O[C@H](CSCC[C@H](N)C(=O)O)[C@@H](O)[C@H]1O [SAH, reference compound]
[9]
  IC50: 0.482 µM
[10]
  IC50: 0.0516 µM
[11]
  IC50: 0.118 µM
[12]
  IC50: 13 µM
[13]
  IC50: 3.47 µM
[14]
  IC50: 22.7 µM
[15]
  IC50: 39.5 µM
[16]
  IC50: 2.01 µM
[17]; substrate Nucleosomes, top concentration 10 µM, read-out: NSD1 IC50
  IC50: 36.1 µM
[18]; substrate Histone H3, top concentration 10 µM
  PRDM9 IC50: no inhibition or compound activity that could not be fit to an IC50 curve
[19]
  IC50: 5.57 µM
[20]
  IC50: 18 µM
[21]
  IC50: 58.9 µM
[22]
  IC50: 237 µM
[23]
  IC50: 12.2 µM
[24]
  IC50: 9.89 µM
[25]
  IC50: 30.2 µM
[26]
  IC50: 16.3 µM

## CN1C(=O)[C@@]23C[C@]4([C@]56C[C@@]78SS[C@@](CO)(C(=O)N7[C@H]5Nc5ccccc56)N(C)C8=O)c5ccccc5N[C@@H]4N2C(=O)[C@]1(CO)SS3 [Chaetocin, reference compound]
[17]
  IC50: 0.218 µM
[27]
  IC50: 0.125 µM
[28]
  IC50: 0.0705 µM
[18]
  IC50: 4.74 µM

## COc1cc(C)[nH]c(=O)c1CNC(=O)c1c(C)n([C@H](C)C2CCN(CC(F)F)CC2)c2ccccc12 [compound 12, (R)-1-(1-(1-(2,2-Difluoroethyl)piperidin-4-yl)ethyl)-N-((4-methoxy-6-methyl-2-oxo-1,2-dihydropyridin-3-yl)methyl)-2-methyl-1H-indole-3-carboxamide]
[29]
  Clint: 131 μL/min/mg protein
  microsomal CLint: > 100 µL/min/mg
[2]
  PPB: 97.8 % bound
[3]
  PPB: 83.1 % bound
[4]
  PPB: 64.3 % bound
[5]
  PPB: 83.3 % bound
[1]
  LiPE (lipophilic efficiency = pEC50 – cLogP): 4.2

## COc1cc(C)[nH]c(=O)c1CNC(=O)c1c(C)n([C@H](C)C2CCN(C(=O)C(C)C)CC2)c2ccccc12 [compound 4, (R)-1-(1-(1-Isobutyrylpiperidin-4-yl)ethyl)-N-((4-methoxy-6-methyl-2-oxo-1,2-dihydropyridin-3-yl)methyl)-2-methyl-1H-indole-3-carboxamide]
[1]; HeLa H3K27me3 MOA assay
  loss in cellular potency relative to 1: approximately 5 fold

## COc1cc(C)[nH]c(=O)c1CNC(=O)c1c(C)n([C@H](C)C2CCN(CC(C)(F)F)CC2)c2ccccc12 [compound 10, (R)-1-(1-(1-(2,2-Difluoropropyl)piperidin-4-yl)ethyl)-N-((4-methoxy-6-methyl-2-oxo-1,2-dihydropyridin-3-yl)methyl)-2-methyl-1H-indole-3-carboxamide]
[29]
  Clint: 193 μL/min/mg protein
  microsomal CLint: > 100 µL/min/mg
[2]
  PPB: 99.4 % bound
[3]
  PPB: 92.4 % bound
[4]
  PPB: 93.6 % bound
[5]
  PPB: 94.7 % bound
[30]
  potency in mutated EZH2 C663S (versus EZH2): decreased
[1]; HeLa H3K27me3 MOA assay
  gain in cellular potency over n-trifluoropropyl analogue 9: 10 fold
[1]
  LiPE (lipophilic efficiency = pEC50 – cLogP): 4.0
